Structures can show the parent of a compound that is named as a salt.
What was measured:
[1] = molecular target: T1, IRAK4 (Homo sapiens, UniProt Q9NWZ3); assay: Assay for inhibitory effect of compound on IRAK4 kinase activity (KinEASE-STK S1 HTRF kit); type: biochemical; conditions: kinase 8 nM, ATP 80 µM, 37°C 90 minutes; read-out: IRAK4 HTRF IC50
T1 sequence (Q9NWZ3 1-460): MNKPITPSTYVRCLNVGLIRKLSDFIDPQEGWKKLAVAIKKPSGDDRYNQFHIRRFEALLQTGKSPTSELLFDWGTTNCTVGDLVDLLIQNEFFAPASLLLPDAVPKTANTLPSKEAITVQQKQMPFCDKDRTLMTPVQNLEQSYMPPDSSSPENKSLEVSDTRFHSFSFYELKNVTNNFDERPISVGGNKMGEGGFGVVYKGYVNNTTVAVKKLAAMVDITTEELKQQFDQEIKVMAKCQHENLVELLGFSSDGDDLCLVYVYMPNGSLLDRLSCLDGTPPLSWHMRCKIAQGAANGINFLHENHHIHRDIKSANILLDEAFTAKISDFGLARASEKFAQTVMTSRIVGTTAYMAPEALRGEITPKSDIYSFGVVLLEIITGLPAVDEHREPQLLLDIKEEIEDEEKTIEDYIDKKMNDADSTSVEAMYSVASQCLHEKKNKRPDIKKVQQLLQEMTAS
Method: Example 1: Kinase activity assay
Assay for inhibitory effect of compound on IRAK4 kinase activity
The inhibitory effect of the compound on IRAK4 kinase activity was measured using the KinEASE-STK S1 serine/threonine kinase kit (Cisbio). The specific method was as follows: the compound was dissolved in dimethyl sulfoxide and then subjected to 3-fold serial dilution in dimethyl sulfoxide, yielding final test compound concentrations in the reaction system ranging from 5,000 nM to 0.0254 nM. The kinase at a final concentration of 8 nM was added, followed by incubation at rt for 15 minutes. Subsequently, biotinylated STK1 substrate at a final concentration of 400 nM and adenosine triphosphate (ATP) at a final concentration of 80 µM were sequentially added, and the mixture was incubated at 37°C for 90 minutes. Then, the reaction was terminated by adding an anti-phosphoserine/threonine antibody conjugated with a europium cryptate and streptavidin-conjugated XL665 to the reaction system. After incubation at rt for 1 hour, the fluorescence intensity at emission wavelengths of 620 nm and 665 nm for each well was measured using an EnVision microplate reader (PerkinElmer) in HTRF mode. The ratio value was calculated using the formula: Ratio = (665 nm/620 nm)×10^4 The inhibition rate of the compound at each concentration was calculated using the formula: Inhibition% = [1-(Signal sample-Signal min)/(Signal max-Signal min)]×100. Subsequently, the dose-response curve was fitted by nonlinear curve fitting of log concentration versus inhibition rate using Fit Modela (205) in XLfit to give the IC50 value of the compound for inhibition of protein activity.

[2] = molecular target: T1, IRAK4; assay: Degradation of IRAK4 in THP1 cells, Western blot; type: cell-based; design: Degradation of IRAK4 in THP1 by compound; host or cells: THP-1; conditions: THP-1 cells, 24 hours of incubation; for DC50: IRAK4 protein by Western blot, read-out: DC50; for Dmax: maximum degradation rate, read-out: Dmax
How it was run: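 THP1 cells treated 24 h, lysed; lysates normalised by BCA, 40 μg protein per lane on 10% SDS-PAGE, anti-IRAK4 Western blot with chemiluminescence detection.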

## CC(C)(C)OC(=O)N1CCC(n2cc(NC(=O)c3cccc(C(F)(F)F)n3)c(C(N)=O)n2)CC1 [Compound A1]
[1]
  IC50: 100 to 1000 nM

## NC(=O)c1nn(-c2cnc(Br)cn2)cc1NC(=O)c1cccc(C(F)(F)F)n1 [Compound A2]
[1]
  IC50: > 1000 nM

## NC(=O)c1nn(C2CCNCC2)cc1NC(=O)c1cccc(C(F)(F)F)n1 [Compound A3]
[1]
  IC50: 100 to 1000 nM

## NC(=O)c1cn(-c2ccccc2)nc1NC(=O)c1cccc(C(F)(F)F)n1 [Compound A4]
[1]
  IC50: > 1000 nM

## NC(=O)c1nn(-c2ccccc2)cc1NC(=O)c1cccc(C(F)(F)F)n1 [Compound A5]
[1]
  IC50: < 100 nM

## NC(=O)c1nn(-c2ccc(O)cc2)cc1NC(=O)c1cccc(C(F)(F)F)n1 [Compound A6]
[1]
  IC50: < 100 nM

## COc1ccc(-n2cc(NC(=O)c3cccc(C(F)(F)F)n3)c(C(N)=O)n2)cc1 [Compound A7]
[1]
  IC50: 100 to 1000 nM

## NC(=O)c1nn(-c2ccc(N)cc2)cc1NC(=O)c1cccc(C(F)(F)F)n1 [Compound A9]
[1]
  IC50: 100 to 1000 nM

## CNc1ccc(-n2cc(NC(=O)c3cccc(C(F)(F)F)n3)c(C(N)=O)n2)cc1 [Compound A10]
[1]
  IC50: 100 to 1000 nM

## CC(=O)Nc1ccc(-n2cc(NC(=O)c3cccc(C(F)(F)F)n3)c(C(N)=O)n2)cc1 [Compound A12]
[1]
  IC50: < 100 nM

## CNC(=O)c1ccc(-n2cc(NC(=O)c3cccc(C(F)(F)F)n3)c(C(N)=O)n2)cc1 [Compound A14]
[1]
  IC50: < 100 nM

## CN(C)C(=O)c1ccc(-n2cc(NC(=O)c3cccc(C(F)(F)F)n3)c(C(N)=O)n2)cc1 [Compound A15]
[1]
  IC50: < 100 nM

## NC(=O)c1nn(-c2ccc(N3CCN(C4CCN(c5ccc(C(=O)NC6CCC(=O)NC6=O)cn5)CC4)CC3)cc2)cc1NC(=O)c1cccc(C(F)(F)F)n1 (stereo not shown) [Compound A433, N-(3-Carbamoyl-1-(4-(4-(1-(5-((2,6-dioxopiperidin-3-yl)carbamoyl)pyridin-2-yl)piperidin-4-yl)piperazin-1-yl)phenyl)-1H-pyrazol-4-yl)-6-(trifluoromethyl)picolinamide]
[2]
  DC50: 100 to 1000 nM
  Dmax: 40 to 60%

## CC(C)(O)c1nn(-c2ccc(N3CCN(CC4CCN(c5ccc(NC6CCC(=O)NC6=O)cc5F)CC4)CC3)cc2)cc1NC(=O)c1cccc(C(F)(F)F)n1 (stereo not shown) [Compound A434, N-(1-(4-(4-((1-(4-((2,6-Dioxopiperidin-3-yl)amino)-2-fluorophenyl)piperidin-4-yl)methyl)piperazin-1-yl)phenyl)-3-(2-hydroxypropan-2-yl)-1H-pyrazol-4-yl)-6-(trifluoromethyl)picolinamide]
[2]
  DC50: < 100 nM
  Dmax: > 60%

## CC(C)(O)c1nn(-c2ccc(N3CCN(CC4CCN(c5ccc(OC6CCC(=O)NC6=O)cn5)CC4)CC3)cc2)cc1NC(=O)c1cccc(C(F)(F)F)n1 (stereo not shown) [Compound A437]
[2]
  DC50: < 100 nM
  Dmax: > 60%

## CC(C)(O)c1nn(-c2ccc(N3CCN(CC4CCN(c5ccc(NC6CCC(=O)NC6=O)cn5)CC4)CC3)cc2)cc1NC(=O)c1cccc(C(F)(F)F)n1 (stereo not shown) [Compound A438, N-(1-(4-(4-((1-(5-((2,6-Dioxopiperidin-3-yl)amino)pyridin-2-yl)piperidin-4-yl)methyl)piperazin-1-yl)phenyl)-3-(2-hydroxypropan-2-yl)-1H-pyrazol-4-yl)-6-(trifluoromethyl)picolinamide formate]
[2]
  DC50: < 100 nM
  Dmax: > 60%

## CC(C)(O)c1nn(-c2ccc(N3CCN(C4CCN(c5ccc(NC6CCC(=O)NC6=O)cc5F)CC4)CC3)cc2)cc1NC(=O)c1cccc(C(F)(F)F)n1 (stereo not shown) [Compound A439, N-(1-(4-(4-(1-(-4-((2,6-Dioxopiperidin-3-yl)amino)-2-fluorophenyl)piperidin-4-yl)piperazin-1-yl)phenyl)-3-(2-hydroxypropan-2-yl)-1H-pyrazol-4-yl)-6-(trifluoromethyl)picolinamide]
[2]
  DC50: < 100 nM
  Dmax: > 60%

## CC(C)(O)c1nn(-c2ccc(N3CCN(C4CCN(c5ccc(OC6CCC(=O)NC6=O)cn5)CC4)CC3)cc2)cc1NC(=O)c1cccc(C(F)(F)F)n1 (stereo not shown) [Compound A440, N-(1-(4-(4-(1-(5-((2,6-Dioxopiperidin-3-yl)oxy)pyridin-2-yl)piperidin-4-yl)piperazin-1-yl)phenyl)-3-(2-hydroxypropan-2-yl)-1H-pyrazol-4-yl)-6-(trifluoromethyl)picolinamide]
[2]
  DC50: < 100 nM
  Dmax: > 60%

## CC(C)(O)c1nn(-c2ccc(N3CCN(C4CCN(c5ccc(C(=O)NC6CCC(=O)NC6=O)c(F)c5)CC4)CC3)cc2)cc1NC(=O)c1cccc(C(F)(F)F)n1 (stereo not shown) [Compound A442, N-(1-(4-(4-(1-(4-((2,6-dioxopiperidin-3-yl)carbamoyl)-3-fluorophenyl)piperidin-4-yl)piperazin-1-yl)phenyl)-3-(2-hydroxypropan-2-yl)-1H-pyrazol-4-yl)-6-(trifluoromethyl)picolinamide]
[2]
  DC50: < 100 nM
  Dmax: > 60%

## CC(C)(O)c1nn(-c2ccc(N3CCN(C4CCN(c5ccc(C(=O)NC6CCC(=O)NC6=O)cc5F)CC4)CC3)cc2)cc1NC(=O)c1cccc(C(F)(F)F)n1 (stereo not shown) [Compound A443, N-(1-(4-(4-(1-(4-((2,6-dioxopiperidin-3-yl)carbamoyl)-2-fluorophenyl)piperidin-4-yl)piperazin-1-yl)phenyl)-3-(2-hydroxypropan-2-yl)-1H-pyrazol-4-yl)-6-(trifluoromethyl)picolinamide]
[2]
  DC50: < 100 nM
  Dmax: > 60%

## CN(c1ccc(N2CCC(CN3CCN(c4ccc(-n5cc(NC(=O)c6cccc(C(F)(F)F)n6)c(C(N)=O)n5)cc4)CC3)CC2)c(F)c1)C1CCC(=O)NC1=O (stereo not shown) [Compound A447, N-(3-Carbamoyl-1-(4-(4-((1-(4-((2,6-Dioxopiperidin-3-yl)(methyl)amino)-2-fluorophenyl)piperidin-4-yl)methyl)piperazin-1-yl)phenyl)-1H-pyrazol-4-yl)-6-(trifluoromethyl)picolinamide formate]
[2]
  DC50: < 100 nM
  Dmax: > 60%

## NC(=O)c1nn(-c2ccc(N3CCN(C(=O)N4CCC(Cc5ccc(N6CCC(=O)NC6=O)cc5)CC4)CC3)cc2)cc1NC(=O)c1cccc(C(F)(F)F)n1 [Compound A448]
[2]
  DC50: 100 to 1000 nM
  Dmax: 40 to 60%

## NC(=O)c1nn(C23CC(N4CCN(C5CCN(c6ccc(NC7CCC(=O)NC7=O)cc6F)CC5)CC4)(C2)C3)cc1NC(=O)c1cccc(C(F)(F)F)n1 (stereo not shown) [Compound A451, N-(3-Carbamoyl-1-(3-(4-(1-(4-((2,6-Dioxopiperidin-3-yl)amino)-2-fluorophenyl)piperidin-4-yl)piperazin-1-yl)bicyclo[1.1.1]pentan-1-yl)-1H-pyrazol-4-yl)-6-(trifluoromethyl)picolinamide]
[2]
  DC50: < 100 nM
  Dmax: > 60%

## NC(=O)c1cn(-c2ccc(N3CCN(C4CCN(c5ccc(C(=O)NC6CCC(=O)NC6=O)nc5)CC4)CC3)cc2)cc1NC(=O)c1cccc(C(F)(F)F)n1 (stereo not shown) [Compound A452, N-(4-Carbamoyl-1-(4-(4-(1-(6-((2,6-dioxopiperidin-3-yl)carbamoyl)pyridin-3-yl)piperidin-4-yl)piperazin-1-yl)phenyl)-1H-pyrrol-3-yl)-6-(trifluoromethyl)picolinamide]
[2]
  DC50: < 100 nM
  Dmax: > 60%

## CC(C)(O)c1nn(-c2ccc(N3CCN(CCC4CCN(C(=O)c5ccc(F)c(N6CCC(=O)NC6=O)c5)CC4)CC3)cc2)cc1NC(=O)c1cccc(C(F)(F)F)n1 [Compound A453, N-(1-(4-(4-(2-(1-(3-(2,4-Dioxotetrahydropyrimidin-1(2H)-yl)-4-fluorobenzoyl)piperidin-4-yl)ethyl)piperazin-1-yl)phenyl)-3-(2-hydroxypropan-2-yl)-1H-pyrazol-4-yl)-6-(trifluoromethyl)picolinamide]
[2]
  DC50: < 100 nM
  Dmax: > 60%

## COc1ccc(C(=O)N2CCC(CCN3CCN(c4ccc(-n5cc(NC(=O)c6cccc(C(F)(F)F)n6)c(C(C)(C)O)n5)cc4)CC3)CC2)cc1N1CCC(=O)NC1=O [Compound A454, N-(1-(4-(4-(2-(1-(3-(2,4-Dioxotetrahydropyrimidin-1(2H)-yl)-4-methoxybenzoyl)piperidin-4-yl)ethyl)piperazin-1-yl)phenyl)-3-(2-hydroxypropan-2-yl)-1H-pyrazol-4-yl)-6-(trifluoromethyl)picolinamide]
[2]
  DC50: < 100 nM
  Dmax: > 60%
